Each structure is given as a SMILES string. A value given as a limit tells only on which side of the number the result lay.

For eleven compounds, IC50, LD50 and inhibition in vivo results are on record in ChEMBL document CHEMBL3585290, “Synthesis and biological evaluation of novel bivalent -carbolines as potential antitumor agents” (Medchemcomm, 2014).

In one data set the test system is SK-OV-3. As to the kind of experiment: Cytotoxicity against human SKOV3 cells after 48 hrs by MTT assay. It counts as functional, cell-based. The following applies: SK-OV-3, 48 h. (Tetrazolium dyes change colour on reduction, which living cells bring about.)
Data set [1] can be described thus: Cytotoxicity against human BGC823 cells after 48 hrs by MTT assay. It counts as functional, cell-based. The following applies: BGC-823, 48 h.
Data set [2] is described as follows: Acute toxicity in ip dosed C57BL/6 mouse measured for 14 days. It counts as organism-based. The following applies: in vivo.
The next data set deals with A-375. As to the kind of experiment: Cytotoxicity against human A375 cells after 48 hrs by MTT assay. It counts as functional, cell-based. Particulars: A-375, 48 h.
Another data set concerns KB. Description: Cytotoxicity against human KB cells after 48 hrs by MTT assay. It counts as functional, cell-based.
In data set [3] the test system is Lewis lung carcinoma cell line. Description: Antitumor activity against mouse LLC cells implanted in mouse assessed as tumor growth inhibition at 212.1 umol/kg, ip qd administered for 7 days starting 24 hrs post tumor implantation measured after day 21 relative to control. The following applies: read-out: TGI. It counts as functional.
Data set [4] concerns CT26. As to the kind of experiment: Antitumor activity against mouse CT26 cells implanted in mouse assessed as tumor growth inhibition at 212.1 umol/kg, ip qd administered for 7 days starting 24 hrs post tumor implantation measured after day 21 relative to control. It counts as functional. Particulars: read-out: TGI.
Another data set relates to 769-P. Description: Cytotoxicity against human 769-P cells after 48 hrs by MTT assay. It counts as functional, cell-based.
The subject of data set [5] is Lewis lung carcinoma cell line. Description: animal or person. Particulars: Mus musculus, ip, read-out: TGI.
Description: Antitumor activity against mouse LLC cells implanted in mouse assessed as tumor growth inhibition at 114.9 umol/kg, ip qd administered for 7 days starting 24 hrs post tumor implantation measured after day 21 relative to control
Data set [6] concerns CT26. As to the kind of experiment: animal or person. Particulars: Mus musculus, CT26, ip, read-out: TGI.
Description: Antitumor activity against mouse CT26 cells implanted in mouse assessed as tumor growth inhibition at 114.9 umol/kg, ip qd administered for 7 days starting 24 hrs post tumor implantation measured after day 21 relative to control
Data set [7] concerns Lewis lung carcinoma cell line. As to the kind of experiment: Antitumor activity against mouse LLC cells implanted in mouse assessed as tumor growth inhibition at 26.9 umol/kg, ip qd administered for 7 days starting 24 hrs post tumor implantation measured after day 21 relative to control. It counts as functional. The following applies: read-out: TGI.
Data set [8] relates to CT26. As to the kind of experiment: Antitumor activity against mouse CT26 cells implanted in mouse assessed as tumor growth inhibition at 26.9 umol/kg, ip qd administered for 7 days starting 24 hrs post tumor implantation measured after day 21 relative to control. It counts as functional. The following applies: read-out: TGI.
Data set [9] relates to Lewis lung carcinoma cell line. As to the kind of experiment: Antitumor activity against mouse LLC cells implanted in mouse assessed as tumor growth inhibition at 32.3 umol/kg, ip qd administered for 7 days starting 24 hrs post tumor implantation measured after day 21 relative to control. It counts as functional. The following applies: read-out: TGI.
The subject of data set [10] is CT26. Description: Antitumor activity against mouse CT26 cells implanted in mouse assessed as tumor growth inhibition at 32.3 umol/kg, ip qd administered for 7 days starting 24 hrs post tumor implantation measured after day 21 relative to control. It counts as functional. The following applies: read-out: TGI.
For data set [11], the system named is CT26. Description: Antitumor activity against mouse CT26 cells implanted in mouse assessed as tumor growth inhibition at 76.9 umol/kg, ip qd administered for 7 days starting 24 hrs post tumor implantation measured after day 21 relative to control. Particulars: read-out: TGI. It counts as functional.
The test system of data set [12] is Lewis lung carcinoma cell line. As to the kind of experiment: Antitumor activity against mouse LLC cells implanted in mouse assessed as tumor growth inhibition at 76.9 umol/kg, ip qd administered for 7 days starting 24 hrs post tumor implantation measured after day 21 relative to control. It counts as functional. Particulars: read-out: TGI.
Data set [13] relates to CT26. As to the kind of experiment: Antitumor activity against mouse CT26 cells implanted in mouse assessed as tumor growth inhibition at 11.1 umol/kg, ip qd administered for 7 days starting 24 hrs post tumor implantation measured after day 21 relative to control. It counts as functional. Particulars: read-out: TGI.
Data set [14] relates to Lewis lung carcinoma cell line. Description: Antitumor activity against mouse LLC cells implanted in mouse assessed as tumor growth inhibition at 11.1 umol/kg, ip qd administered for 7 days starting 24 hrs post tumor implantation measured after day 21 relative to control. It counts as functional. The following applies: read-out: TGI.
Data set [15] deals with Lewis lung carcinoma cell line. As to the kind of experiment: Antitumor activity against mouse LLC cells implanted in mouse assessed as tumor growth inhibition at 223.8 umol/kg, ip qd administered for 7 days starting 24 hrs post tumor implantation measured after day 21 relative to control. It counts as functional. Particulars: read-out: TGI.
In data set [16] the test system is CT26. Description: Antitumor activity against mouse CT26 cells implanted in mouse assessed as tumor growth inhibition at 223.8 umol/kg, ip qd administered for 7 days starting 24 hrs post tumor implantation measured after day 21 relative to control. Particulars: read-out: TGI. It counts as functional.

As to `O=C(O)c1cc2c3ccccc3n(CCCc3ccccc3)c2cn1`, the IC50 in the data set on SK-OV-3 was > 200 µM; in data set [1] it was 36.7 µM; in the data set with A-375, 67.6 µM; in the data set with KB, 86.4 µM; with 769-P, 56.8 µM. In data set [2], the LD50 at 336 h was found to be 1090 µmol/kg. Moreover, the inhibition in vivo at 212.1 µmol/kg in data set [3] came out at 40.3%; in the data set with CT26 [4], 20.3%.

On to `O=P1(N(CCCl)CCCl)NCCCO1` (stereo not given) [CYCLOPHOSPHAMIDE ANHYDROUS], for which the results for the inhibition in vivo at 114.9 µmol/kg (in [5]; with CT26 [6]) were 88.1% and 87.6%, respectively.

In the case of `O=C(OCCCCCCOC(=O)c1cc2c3ccccc3n(CCCc3ccccc3)c2cn1)c1cc2c3ccccc3n(CCCc3ccccc3)c2cn1`, the inhibition in vivo at 26.9 µmol/kg in [7] was determined as 53.5%; with CT26 [8] it was 28.3%. For the same compound, the concentration for half-maximal inhibition (IC50) with SK-OV-3 was 8.5 µM; in data set [1] it was > 200 µM; in the data set on A-375, 14.4 µM; in the data set with KB, 56.4 µM; in the data set with 769-P it was 29.4 µM. Also, in data set [2], the LD50 at 336 h worked out at 135 µmol/kg.

Consider `CCCCn1c2ccccc2c2cc(C(=O)OCCCCCCOC(=O)c3cc4c5ccccc5n(CCCC)c4cn3)ncc21`, for which the inhibition in vivo at 32.3 µmol/kg is 64.2% in [9] and 33.8% in the data set on CT26 [10]. In addition, the IC50 with SK-OV-3 is > 200 µM; in data set [1], 43.2 µM; in the data set on A-375 it was 18.2 µM; in the data set on KB, 15.6 µM; in the data set with 769-P, 112 µM. The LD50 at 336 h in data set [2] was 162 µmol/kg.

As to `Cc1nc(C(=O)OCCCOC(=O)c2cc3c4ccccc4n(C)c3c(C)n2)cc2c3ccccc3n(C)c12`, the IC50 in the data set with SK-OV-3 amounted to 21 µM; in [1], 19.5 µM; with A-375, 16.6 µM; in the data set with KB, 18.4 µM; in the data set with 769-P, 16.3 µM. Moreover, the inhibition in vivo at 76.9 µmol/kg amounted to 23.6% in the data set on CT26 [11] and 28.1% in data set [12]. For the same compound, the LD50 at 336 h in data set [2] is 385 µmol/kg.

As for `COc1ccc(-c2nc(C(=O)OCCCCCCOC(=O)c3cc4c5ccccc5n(CCCc5ccccc5)c4c(-c4ccc(OC)cc4)n3)cc3c4ccccc4n(CCCc4ccccc4)c23)cc1`, the inhibition in vivo at 11.1 µmol/kg in the data set on CT26 [13] was found to be 15.1%; in data set [14], 24.6%. The IC50 is > 200 µM with SK-OV-3; 140 µM in [1]; 132 µM in the data set on A-375; 218 µM in the data set on KB; 95.5 µM in the data set on 769-P. Further, the LD50 at 336 h in [2] is 55.8 µmol/kg.

Turning to `CCCCn1c2ccccc2c2cc(C(=O)O)ncc21`, the values for the inhibition in vivo at 223.8 µmol/kg (in [15]; in the data set with CT26 [16]) were 45.4% and 18.7%, respectively. The IC50 in the data set with SK-OV-3 is > 200 µM; in data set [1] it was 125 µM; in the data set with A-375, 79.6 µM; in the data set with KB it was 67.7 µM; in the data set with 769-P, 42.7 µM. Further, in data set [2], the LD50 at 336 h was 1120 µmol/kg.

Regarding `CCCCn1c2ccccc2c2cc(C(=O)OCCCCOC(=O)c3cc4c5ccccc5n(CCCC)c4cn3)ncc21`, the IC50 in the data set on SK-OV-3 was 123 µM; in [1] it was 116 µM; in the data set on A-375, > 200 µM; with KB, 89 µM; in the data set on 769-P it was 42.6 µM.

For the compound `O=C(OCCCCCCCCCOC(=O)c1cc2c3ccccc3n(Cc3cccc(Cl)c3)c2cn1)c1cc2c3ccccc3n(Cc3cccc(Cl)c3)c2cn1`, the IC50 is > 200 µM with SK-OV-3; > 200 µM in data set [1]; > 200 µM in the data set with A-375; 71.2 µM with KB; 145 µM in the data set on 769-P.

With `CCn1c2ccccc2c2cc(C(=O)OCCCCCCOC(=O)c3cc4c5ccccc5n(CC)c4c(-c4ccc(OC)cc4)n3)nc(-c3ccc(OC)cc3)c21`, the IC50 in the data set on SK-OV-3 was > 200 µM; in [1], > 200 µM; in the data set on A-375 it was > 200 µM; in the data set on KB it was 89.2 µM; in the data set on 769-P, 65.9 µM.

Consider `CCn1c2ccccc2c2cc(C(=O)OCCCCCCOC(=O)c3cc4c5ccccc5n(CC)c4c(C)n3)nc(C)c21`, for which the IC50 in the data set on SK-OV-3 was > 200 µM; in [1] it was > 200 µM; in the data set with A-375, 32.9 µM; in the data set on KB it was 16.5 µM; with 769-P, 43.1 µM.

The term IC50 denotes the concentration that gives 50% inhibition. The low end stands for inhibition by little substance, the high end for a need for much substance. As usually defined, the LD50 is the dose expected to kill half of the subjects tested. Read a high LD50 as lower toxicity.
